PMC6260593, “Kaempferol and Kaempferol Rhamnosides with Depigmenting and Anti-Inflammatory Properties” (Molecules, 2011)
Like-named read-outs stand apart in the source and are kept apart here.

Experiments:
[1] = system: NO production in LPS-activated RAW264.7 cells; assay: Inhibition of NO production induced by LPS in RAW264.7 cells (Griess); assay type: cell-based; conditions: Mus musculus, LPS 1 μg/mL, 24 h, read-out: Inhibitory activity [IC50] NO
Method: The nitrite in the culture supernatants was measured by adding Griess reagent (100 μL, 1% sulfanilamide and 0.1% N-[1-naphthyl]-ethylenediamine dihydrochloride in 5% phosphoric acid) to samples of the medium (100 μL) for 10 min at room temperature. The OD at 570 nm (OD570) was measured using a Spectramax 250 microplate reader (Molecular Devices). A standard curve of NO was made with sodium nitrite.

[2] = Cytotoxicity in RAW264.7 cells (MTT); conditions: mouse
Method: (§1) The cytotoxic effect of kojyl thioether derivatives was then evaluated by a conventional MTT assay. At 3 h prior to culture termination, MTT solution (10 μL, 5 mg/mL in a phosphate buffered-saline, pH 7.4) was added and the cells were continuously cultured until termination. The incubation was halted by the addition of 15% sodium dodecyl sulfate into each well, solubilizing formazan. The absorbance at 570 nm (OD570–630) was measured by a Spectramax 250 microplate reader.

[3] = system: NF-κB-mediated luciferase activity; assay: NF-κB-mediated luciferase assay in HEK293 cells; assay type: cell-based; conditions: HEK293 cells transfected with NF-κB-Luc, PMA 0.1 μM, 24 h, read-out: Inhibitory activity [IC50] NF-κB-mediated luciferase activity
Method: HEK293 cells (1 × 10^6 cells/mL) were transfected with plasmids containing NF-κB-Luc, (1 μg/mL each) as well as β-galactosidase (0.5 μg/mL) using the PEI method in a 12-well plate for 48 h, and they were treated with testing compounds in the presence or absence of PMA (0.1 μM) for 24 h. Luciferase assay was performed using the Luciferse Assay System (Promega).

B16 melanoma cells [4] = assay: Depigmenting activity (melanin content) in B16 melanoma cells; assay type: cell-based; conditions: for IC50: Mus musculus, 120 h, 5 days, melanin content, read-out: Inhibitory activity [IC50] Depigmentation
Method: The cell pellets were then dissolved in 1 N NaOH in 10% DMSO (500 μL) at 80 °C for 1 h. The relative melanin content was determined by measuring the absorbance at 475 nm with an ELISA reader (Molecular Devices Corp., Menlo Park, CA, USA). A standard synthetic melanin curve (0–500 μg⁄mL) was prepared in triplicate for each experiment.

[5] = Cytotoxicity towards B16 melanoma cells; assay type: cell-based; conditions: mouse, read-out: Inhibitory activity [IC50] Cytotoxicity
B16 melanoma cells [6] = assay: Cytotoxicity towards B16 melanoma cells; assay type: cell-based
RAW264.7 cells = assay: Cytotoxicity in RAW264.7 cells (MTT)
Method: as §1

iNOS mRNA = assay: Expression of iNOS mRNA in LPS-activated RAW 264.7 cells (RT-PCR); assay type: cell-based; conditions: 25–100 μM, LPS 1 μg/mL for 6 h
Method: RAW 264.7 cells were treated with different concentrations of compound 1 and 2 (25–100 μM) and then stimulated with LPS (1 μg/mL) for 6 h.
The total RNA from the LPS treated-RAW264.7 cells was prepared by adding TRIzol Reagent (Gibco BRL), as per the manufacturer’s instructions. Real-time PCR reactions were conducted using MuLV reverse transcriptase. The primers (Bioneer, Daejeon, Korea) were used as previously reported.

Tyrosinase = target: Tyrosinase; parameters: method as in PMID 21050756; conditions: previously reported, cited from earlier work; for IC50: means of three experiments, read-out: Inhibitory activity [IC50] Tyrosinase

Row | SMILES | IC50 [1] [µM] | IC50 [3] [µM] | IC50 (B16 melanoma cells [4]) [µM] | IC50 ([3]; Homo sapiens) [µM] | IC50 at 24 h [2] [µM] | IC50 at 24 h ([2]; RAW264.7 cells) [µM] | Depigmenting inhibitory activity (in words) (B16 melanoma cells [4]) | IC50 [5] [µM] | Cytotoxicity towards B16 melanoma cells (in words) (B16 melanoma cells [6]) | Cytotoxicity in the NO assay cells (in words) (RAW264.7 cells; RAW264.7 cells) | Expression of iNOS mRNA (in words) (iNOS mRNA) | IC50 (Tyrosinase) [µM] | Tyrosinase inhibitory activity (in words) (Tyrosinase) | Cytotoxicity in the NO assay cells (in words) (RAW264.7 cells)
1 | CC(=O)CCCCn1c(=O)c2c(ncn2C)n(C)c1=O [Pentoxifylline, pentoxifylline, reference compound] | 446 ± 1.1 | – | – | – | – | > 1000 | – | – | – | – | – | – | – | –
2 | Cc1ccc(S(=O)(=O)/C=C/C#N)cc1 [BAY11-7082, reference compound] | – | 11.5 ± 0.1 | – | – | – | – | – | – | – | – | – | – | – | –
3 | C[C@@H]1O[C@@H](Oc2cc(O)c3c(=O)c(O[C@@H]4O[C@@H](C)[C@H](O)[C@@H](O)[C@H]4O)c(-c4ccc(O)cc4)oc3c2)[C@H](O)[C@H](O)[C@H]1O [Kaempferitrin (4), kaempferol-3,7-O-α-dirhamnoside] | > 100 | – | > 100 | > 100 | > 100 | – | – | > 100 | – | – | – | – | showed no inhibitory activities | –
4 | C[C@@H]1O[C@@H](Oc2c(-c3ccc(O)cc3)oc3cc(O)cc(O)c3c2=O)[C@H](O)[C@H](O)[C@H]1O [Afzelin (3), kaempferol 3-O-α-L-rhamnopyranoside] | > 100 | – | > 100 | > 100 | > 100 | – | – | > 100 | – | – | – | – | showed no inhibitory activities | –

Further molecules by falling IC50 (B16 melanoma cells [4]), results first:

Row | IC50 [1] [µM] | IC50 [3] [µM] | IC50 (B16 melanoma cells [4]) [µM] | IC50 ([3]; Homo sapiens) [µM] | IC50 at 24 h [2] [µM] | SMILES | IC50 at 24 h ([2]; RAW264.7 cells) [µM] | Depigmenting inhibitory activity (in words) (B16 melanoma cells [4]) | IC50 [5] [µM] | Cytotoxicity towards B16 melanoma cells (in words) (B16 melanoma cells [6]) | Cytotoxicity in the NO assay cells (in words) (RAW264.7 cells; RAW264.7 cells) | Expression of iNOS mRNA (in words) (iNOS mRNA) | IC50 (Tyrosinase) [µM] | Tyrosinase inhibitory activity (in words) (Tyrosinase) | Cytotoxicity in the NO assay cells (in words) (RAW264.7 cells)
5 | – | – | 171 ± 2.1 | – | – | OC[C@H]1O[C@@H](Oc2ccc(O)cc2)[C@H](O)[C@@H](O)[C@@H]1O [Arbutin, reference compound] | – | – | > 200 | – | – | – | – | – | –
6 | 37.7 ± 2 | – | 39.5 ± 0.4 | 36.2 ± 3.3 | > 100 | C[C@@H]1O[C@@H](Oc2cc(O)c3c(=O)c(O)c(-c4ccc(O)cc4)oc3c2)[C@H](O)[C@H](O)[C@H]1O [α-Rhamnoisorobin (2), kaempferol 7-O-α-L-rhamnopyranoside] | – | showed inhibitory activity | 22.9 ± 1.3 | showed cytotoxicity towards B16 melanoma cells | – | suppressed the expression of iNOS mRNA in a dose-dependent manner | > 400 | showed tyrosinase inhibitory activities | without cytotoxicity
7 | 15.4 ± 0.2 | – | 37.66 ± 0.1 | 90.3 ± 5.1 | – | O=c1c(O)c(-c2ccc(O)cc2)oc2cc(O)cc(O)c12 [Kaempferol (1), kaempferol] | > 100 | showed inhibitory activity | 25.6 ± 0.9 | showed cytotoxicity towards B16 melanoma cells | without cytotoxicity | suppressed the expression of iNOS mRNA in a dose-dependent manner | 171.4 ± 0.9 | showed tyrosinase inhibitory activities | –
